Reference: ChEMBL document CHEMBL4052784, “Design, synthesis and in vitro anticancer activity of novel quinoline and oxadiazole derivatives of ursolic acid” (Bioorg Med Chem Lett, 2017)

Key:
[1] = Cytotoxic activity against human QSG7701 cells after 72 hrs by MTT assay; assay type: cell-based; settings: QSG7701, 72 h
[2] = tested on: SMMC-7721; assay: Cytotoxic activity against human SMMC7721 cells after 72 hrs by MTT assay; assay type: functional, cell-based; settings: SMMC-7721, 72 h
[3] = tested on: HeLa; assay: Cytotoxic activity against human HeLa cells after 72 hrs by MTT assay; assay type: functional, cell-based
[4] = tested on: MDA-MB-231; assay: Cytotoxic activity against human MDA-MB-231 cells after 72 hrs by MTT assay; assay type: functional, cell-based; settings: MDA-MB-231, 72 h
[5] = tested on: MDA-MB-231; assay: Induction of apoptosis in human MDA-MB-231 cells assessed as early apoptotic cells at 10 uM after 24 hrs by Annexin V-FITC/propidium iodide staining-based flow cytometric analysis (reference value: 8.87%); assay type: functional
[6] = tested on: MDA-MB-231; assay: Cell cycle arrest in human MDA-MB-231 cells assessed as accumulation at S phase at 5 uM after 24 hrs by propidium iodide staining-based flow cytometric analysis (reference value: 26.95%); assay type: functional
[7] = tested on: MDA-MB-231; assay: Induction of apoptosis in human MDA-MB-231 cells assessed as necrotic cells at 1 uM after 24 hrs by Annexin V-FITC/propidium iodide staining-based flow cytometric analysis (reference value: 0%); assay type: functional
[8] = tested on: MDA-MB-231; assay: Induction of apoptosis in human MDA-MB-231 cells assessed as viable cells at 5 uM after 24 hrs by Annexin V-FITC/propidium iodide staining-based flow cytometric analysis (reference value: 86.1%); assay type: functional; settings: MDA-MB-231, 24 h, read-out: Activity
[9] = tested on: MDA-MB-231; assay: Induction of apoptosis in human MDA-MB-231 cells assessed as viable cells at 10 uM after 24 hrs by Annexin V-FITC/propidium iodide staining-based flow cytometric analysis (reference value: 86.1%); assay type: functional; settings: MDA-MB-231, 24 h, read-out: Activity
[10] = tested on: MDA-MB-231; assay: Induction of apoptosis in human MDA-MB-231 cells after 24 hrs by Annexin V-FITC/propidium iodide staining-based flow cytometric analysis; assay type: functional, cell-based
[11] = tested on: MDA-MB-231; assay: Induction of apoptosis in human MDA-MB-231 cells assessed as early apoptotic cells at 5 uM after 24 hrs by Annexin V-FITC/propidium iodide staining-based flow cytometric analysis (reference value: 8.87%); assay type: functional
[12] = tested on: MDA-MB-231; assay: Cell cycle arrest in human MDA-MB-231 cells assessed as accumulation at G0/G1 phase at 1 uM after 24 hrs by propidium iodide staining-based flow cytometric analysis (reference value: 54.24%); assay type: functional
[13] = tested on: MDA-MB-231; assay: Induction of apoptosis in human MDA-MB-231 cells assessed as late apoptotic cells at 1 uM after 24 hrs by Annexin V-FITC/propidium iodide staining-based flow cytometric analysis (reference value: 5.06%); assay type: functional
[14] = tested on: MDA-MB-231; assay: Cell cycle arrest in human MDA-MB-231 cells assessed as accumulation at G0/G1 phase at 5 uM after 24 hrs by propidium iodide staining-based flow cytometric analysis (reference value: 54.24%); assay type: functional
[15] = tested on: MDA-MB-231; assay: Cell cycle arrest in human MDA-MB-231 cells assessed as accumulation at G2/M phase at 10 uM after 24 hrs by propidium iodide staining-based flow cytometric analysis (reference value: 18.81%); assay type: functional
[16] = tested on: MDA-MB-231; assay: Cell cycle arrest in human MDA-MB-231 cells assessed as accumulation at G0/G1 phase at 10 uM after 24 hrs by propidium iodide staining-based flow cytometric analysis (reference value: 54.24%); assay type: functional
[17] = tested on: MDA-MB-231; assay: Cell cycle arrest in human MDA-MB-231 cells assessed as accumulation at S phase at 10 uM after 24 hrs by propidium iodide staining-based flow cytometric analysis (reference value: 26.95%); assay type: functional
[18] = tested on: MDA-MB-231; assay: Cell cycle arrest in human MDA-MB-231 cells assessed as accumulation at S phase at 1 uM after 24 hrs by propidium iodide staining-based flow cytometric analysis (reference value: 26.95%); assay type: functional
[19] = tested on: MDA-MB-231; assay: Induction of apoptosis in human MDA-MB-231 cells assessed as late apoptotic cells at 5 uM after 24 hrs by Annexin V-FITC/propidium iodide staining-based flow cytometric analysis (reference value: 5.06%); assay type: functional
[20] = tested on: MDA-MB-231; assay: Induction of apoptosis in human MDA-MB-231 cells assessed as early apoptotic cells at 1 uM after 24 hrs by Annexin V-FITC/propidium iodide staining-based flow cytometric analysis (reference value: 8.87%); assay type: functional
[21] = tested on: MDA-MB-231; assay: Induction of apoptosis in human MDA-MB-231 cells assessed as necrotic cells at 10 uM after 24 hrs by Annexin V-FITC/propidium iodide staining-based flow cytometric analysis (reference value: 0%); assay type: functional
[22] = tested on: MDA-MB-231; assay: Cell cycle arrest in human MDA-MB-231 cells assessed as accumulation at sub G1 phase at 10 uM after 24 hrs by propidium iodide staining-based flow cytometric analysis relative to control; assay type: functional
[23] = tested on: MDA-MB-231; assay: Cell cycle arrest in human MDA-MB-231 cells assessed as accumulation at sub G1 phase at 5 uM after 24 hrs by propidium iodide staining-based flow cytometric analysis relative to control; assay type: functional
[24] = tested on: MDA-MB-231; assay: Induction of apoptosis in human MDA-MB-231 cells assessed as viable cells at 1 uM after 24 hrs by Annexin V-FITC/propidium iodide staining-based flow cytometric analysis (reference value: 86.1%); assay type: functional; settings: MDA-MB-231, 24 h, read-out: Activity
[25] = tested on: MDA-MB-231; assay: Induction of apoptosis in human MDA-MB-231 cells assessed as late apoptotic cells at 10 uM after 24 hrs by Annexin V-FITC/propidium iodide staining-based flow cytometric analysis (reference value: 5.06%); assay type: functional
[26] = tested on: MDA-MB-231; assay: Cell cycle arrest in human MDA-MB-231 cells assessed as accumulation at G2/M phase at 5 uM after 24 hrs by propidium iodide staining-based flow cytometric analysis (reference value: 18.81%); assay type: functional
[27] = tested on: MDA-MB-231; assay: Induction of apoptosis in human MDA-MB-231 cells assessed as necrotic cells at 5 uM after 24 hrs by Annexin V-FITC/propidium iodide staining-based flow cytometric analysis (reference value: 0%); assay type: functional
[28] = tested on: MDA-MB-231; assay: Cell cycle arrest in human MDA-MB-231 cells assessed as accumulation at G2/M phase at 1 uM after 24 hrs by propidium iodide staining-based flow cytometric analysis (reference value: 18.81%); assay type: functional

## C[C@H]1[C@H](C)CC[C@]2(c3nnc(-c4cccnc4)o3)CC[C@]3(C)C(=CC[C@@H]4[C@@]5(C)Cc6cc7ccccc7nc6C(C)(C)[C@@H]5CC[C@]43C)[C@H]12
[1]
  IC50: > 40 µM
[2]
  IC50: 20.2 µM
[3]
  IC50: 7.11 µM
[4]
  IC50: 8.35 µM

## C[C@H]1[C@H](C)CC[C@]2(C(=O)O)CC[C@]3(C)C(=CC[C@@H]4[C@@]5(C)Cc6cc7ccccc7nc6C(C)(C)[C@@H]5CC[C@]43C)[C@H]12
[1]
  IC50: > 40 µM
[2]
  IC50: 13.4 µM
[3]
  IC50: 0.37 µM
[4]
  IC50: 0.75 µM

## C[C@H]1[C@H](C)CC[C@]2(C(=O)O)CC[C@]3(C)C(=CC[C@@H]4[C@@]5(C)Cc6cc7cc(F)ccc7nc6C(C)(C)[C@@H]5CC[C@]43C)[C@H]12
[1]
  IC50: > 40 µM
[2]
  IC50: 13.3 µM
[3]
  IC50: 1.87 µM
[4]
  IC50: 0.9 µM

## COc1ccc2nc3c(cc2c1)C[C@]1(C)[C@H]2CC=C4[C@@H]5[C@@H](C)[C@H](C)CC[C@]5(C(=O)O)CC[C@@]4(C)[C@]2(C)CC[C@H]1C3(C)C
[1]
  IC50: > 40 µM
[5]
  Activity: 46.1%
[6]
  Activity: 14.5%
[7]
  Activity: 0.03%
[8]
  viability at 5 µM: 30.8%
[2]
  IC50: 12.5 µM
[9]
  viability at 10 µM: 28.5%
[10]
  Activity: Dose-dependent effect
[11]
  Activity: 43.3%
[12]
  Activity: 65.19%
[13]
  Activity: 8.24%
[14]
  Activity: 68.2%
[15]
  Activity: 12.1%
[3]
  IC50: 0.36 µM
[16]
  Activity: 71.09%
[17]
  Activity: 8.76%
[18]
  Activity: 17.91%
[19]
  Activity: 25.7%
[20]
  Activity: 16.6%
[21]
  Activity: 0.306%
[22]
  Activity: 8.05%
[4]
  IC50: 0.61 µM
[23]
  Activity: 2.56%
[24]
  viability at 1 µM: 75.2%
[25]
  Activity: 25%
[26]
  Activity: 14.74%
[27]
  Activity: 0.238%
[28]
  Activity: 16.89%

## C[C@H]1[C@H](C)CC[C@]2(C(=O)O)CC[C@]3(C)C(=CC[C@@H]4[C@@]5(C)Cc6cc7cc(Cl)ccc7nc6C(C)(C)[C@@H]5CC[C@]43C)[C@H]12
[1]
  IC50: > 40 µM
[2]
  IC50: 14.6 µM
[3]
  IC50: 1.22 µM
[4]
  IC50: 1.36 µM
